Where a name gives a salt, the structure may show the parent alone. Read-outs that look alike come from different tables or passages of the source.
What was measured:
[1] = Solubility of salts in water and pH (drug addition method); type: physicochemical; conditions: water, room temperature
Protocol: The solubility was determined by means of the drug addition method. At room temperature the drug was added to 0.25 ml deionised water. The sample was diluted to 2 ml for pH determination. A single determination was carried out.

[2] = Melting profile / stability of salts (Mettler hotstage and DSC); type: physicochemical; conditions: for Hotstage/DSC results indicates (racemisation on heating) / temperature of racemisation indicated by hotstage/DSC: 10° C./min
Protocol: Events on heating were monitored visually using a Mettler hotstage and a microscope. A DSC scan was then used to confirm the observed events and identify the type of event. The DSC experiments were performed using the Perkin Elmer DSC-7 system with a TAC7/DX recorder. In order to capture as many events as possible a scan irate of 10° C./min and 1-2 mg sample size was used. DSC sweeps between 40° C. and 400° C. or from and to 50° C. outside any event observed on the hot stage were carried out on one or two samples. The samples and reference (air) were placed in 50 μl aluminium pans with holes.

[3] = tested on: PGE2-induced acute hyperalgesia; experiment: Effects on the development of PGE2-induced acute hyperalgesia (paw pressure); type: in vivo, rat; conditions: 1 h before PGE2 (100 ng), n=5
Protocol: Effects on the development of PGE2 -induced acute hyperalgesia
Reaction times to paw pressure were measured 3 h after PGE2 injection. Ataxia was scored at the same time by observation of the rats placed in an arena.

[4] = Half-life in male rats; type: in vivo, rat
[5] = tested on: veratrine-evoked glutamate release from rat brain slices; experiment: Inhibition of veratrine-evoked glutamate release; type: cell-based
[6] = tested on: striatal dopamine in MPTP injected C57B1/6 mice; experiment: MPTP induced neurotoxic model, striatal dopamine levels; type: in vivo, mouse
Protocol: Six-week old male C57B1/6 mice (Japan SLC Co., Hamamatu) were housed ten per case in a temperature-controlled room under a 12-hours light/12-hours dark cycle with free access to food and water.
Mice received i.p. injections of the R(-) enantiomer and the S(+) enantiomer (30 mg/kg) in olive oil starting 12 hours before MPTP injection and every 12 hours for the next 5-injections. Control mice received olive oil only.
Mice receive s.c. injection of MPTP-HCl (40 mg of free base per kg; Research Biochemicals) in saline. Control mice received saline only.
HPLC with electrochemical detection was used to measure striatal levels of dopamine (J.C. Garcia': Journal of Chromatography B. 656 (1994) 77-80).
Seven days after the MPTP injection, mice ([…]) were killed and striata were dissected out, immediately frozen, and stored at -80° C. until analysis. On the day of the assay, tissue samples were sonicated in 10 vol(wt/vol) of 0.1M perchloric acid /1.9 mM sodium hydrogen sulfite containing 1.6μg/ml 3,4-dihydroxybenzylamine hydrobromide(Sigma) as an internal standard. After centrifugation (2,800× g for 10 min at room temperature) and filtration (0.5 μm; Millipore membrane filter), 10 μl of supernatant was injected onto an Inertsil ODS3 column (4.6×250 mm; GL Science, Tokyo). The mobile phase consisted of 88% 115 mM NaH2 PO4 /0.178 mM Na2 EDTA /0.92 mM 1-octanesulfonic acid (pH=2.6) solution and 12% ethanol. F low rate was 1.0 ml/min. Peaks were detected by a Shimazu electrochemical detector LECD-6A(700 mV).

[7] = target: T1, rat liver DHFR (Rattus norvegicus, UniProt Q920D2); experiment: Activity against dihydrofolate reductase (DHFR), spectrophotometric assay; type: biochemical; conditions: at 100 μM
T1 construct: rat liver DHFR; from tissue; host or cells: rat liver
T1 sequence (Q920D2 1-187): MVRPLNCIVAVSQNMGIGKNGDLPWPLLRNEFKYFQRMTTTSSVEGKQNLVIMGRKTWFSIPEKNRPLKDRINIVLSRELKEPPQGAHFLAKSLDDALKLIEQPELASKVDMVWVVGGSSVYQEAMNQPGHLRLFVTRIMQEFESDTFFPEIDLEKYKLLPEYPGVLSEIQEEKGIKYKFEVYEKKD

[8] = tested on: whole-cell sodium currents in cultured rat hippocampal neurones; experiment: Whole-cell sodium currents in cultured embryonic rat hippocampal neurones, patch-clamp; type: cell-based; conditions: for IC50: 20 msec pulses to -10 mV from holding potential -60 mV, read-out: IC50 (reduction of peak sodium current); for reduction of peak sodium current: holding potential -60 mV
Source text: (b) Cultured embryonic rat hippocampal neurones
Sodium currents were elicited by the application of 20 msec dipolarisng pulses, thereby lowering membrane potential to -10 mV from a holding potential of -60 mV.

[9] = tested on: hind-limb extension (maximal electroshock seizure); experiment: Maximal electroshock test, rats, i.p., duration of action; type: in vivo, rat; conditions: for ED50 (95% limits): i.p.; for ED50: Rattus norvegicus, ip
[10] = tested on: maximal electroshock seizure; experiment: Maximal electroshock test, rats, i.v., stronger current (200 mA); type: in vivo; conditions: Rattus norvegicus, iv, 1 h
Source text: A stronger current (200 mA) was used compared with that (20 mA) used in the other procedures.

[11] = target: T2, rat type IIA sodium channels (Rattus norvegicus, UniProt P04775); experiment: Recombinant rat type IIA sodium channels in chinese hamster ovary cells, whole-cell recording; type: cell-based; conditions: for IC50: IC50 (inhibition of Na+ currents)
T2 construct: no beta subunit mentioned
Source text: The IC50 's at two different holding potentials (Vh) were as follows: […]

[12] = tested on: maximal electroshock seizure; experiment: Maximal electroshock test, mice, different routes of administration; type: in vivo, mouse; conditions: Mus musculus, mice, 1 hour, read-out: ED50 (95% limits)

T2 sequence (P04775 whole entry): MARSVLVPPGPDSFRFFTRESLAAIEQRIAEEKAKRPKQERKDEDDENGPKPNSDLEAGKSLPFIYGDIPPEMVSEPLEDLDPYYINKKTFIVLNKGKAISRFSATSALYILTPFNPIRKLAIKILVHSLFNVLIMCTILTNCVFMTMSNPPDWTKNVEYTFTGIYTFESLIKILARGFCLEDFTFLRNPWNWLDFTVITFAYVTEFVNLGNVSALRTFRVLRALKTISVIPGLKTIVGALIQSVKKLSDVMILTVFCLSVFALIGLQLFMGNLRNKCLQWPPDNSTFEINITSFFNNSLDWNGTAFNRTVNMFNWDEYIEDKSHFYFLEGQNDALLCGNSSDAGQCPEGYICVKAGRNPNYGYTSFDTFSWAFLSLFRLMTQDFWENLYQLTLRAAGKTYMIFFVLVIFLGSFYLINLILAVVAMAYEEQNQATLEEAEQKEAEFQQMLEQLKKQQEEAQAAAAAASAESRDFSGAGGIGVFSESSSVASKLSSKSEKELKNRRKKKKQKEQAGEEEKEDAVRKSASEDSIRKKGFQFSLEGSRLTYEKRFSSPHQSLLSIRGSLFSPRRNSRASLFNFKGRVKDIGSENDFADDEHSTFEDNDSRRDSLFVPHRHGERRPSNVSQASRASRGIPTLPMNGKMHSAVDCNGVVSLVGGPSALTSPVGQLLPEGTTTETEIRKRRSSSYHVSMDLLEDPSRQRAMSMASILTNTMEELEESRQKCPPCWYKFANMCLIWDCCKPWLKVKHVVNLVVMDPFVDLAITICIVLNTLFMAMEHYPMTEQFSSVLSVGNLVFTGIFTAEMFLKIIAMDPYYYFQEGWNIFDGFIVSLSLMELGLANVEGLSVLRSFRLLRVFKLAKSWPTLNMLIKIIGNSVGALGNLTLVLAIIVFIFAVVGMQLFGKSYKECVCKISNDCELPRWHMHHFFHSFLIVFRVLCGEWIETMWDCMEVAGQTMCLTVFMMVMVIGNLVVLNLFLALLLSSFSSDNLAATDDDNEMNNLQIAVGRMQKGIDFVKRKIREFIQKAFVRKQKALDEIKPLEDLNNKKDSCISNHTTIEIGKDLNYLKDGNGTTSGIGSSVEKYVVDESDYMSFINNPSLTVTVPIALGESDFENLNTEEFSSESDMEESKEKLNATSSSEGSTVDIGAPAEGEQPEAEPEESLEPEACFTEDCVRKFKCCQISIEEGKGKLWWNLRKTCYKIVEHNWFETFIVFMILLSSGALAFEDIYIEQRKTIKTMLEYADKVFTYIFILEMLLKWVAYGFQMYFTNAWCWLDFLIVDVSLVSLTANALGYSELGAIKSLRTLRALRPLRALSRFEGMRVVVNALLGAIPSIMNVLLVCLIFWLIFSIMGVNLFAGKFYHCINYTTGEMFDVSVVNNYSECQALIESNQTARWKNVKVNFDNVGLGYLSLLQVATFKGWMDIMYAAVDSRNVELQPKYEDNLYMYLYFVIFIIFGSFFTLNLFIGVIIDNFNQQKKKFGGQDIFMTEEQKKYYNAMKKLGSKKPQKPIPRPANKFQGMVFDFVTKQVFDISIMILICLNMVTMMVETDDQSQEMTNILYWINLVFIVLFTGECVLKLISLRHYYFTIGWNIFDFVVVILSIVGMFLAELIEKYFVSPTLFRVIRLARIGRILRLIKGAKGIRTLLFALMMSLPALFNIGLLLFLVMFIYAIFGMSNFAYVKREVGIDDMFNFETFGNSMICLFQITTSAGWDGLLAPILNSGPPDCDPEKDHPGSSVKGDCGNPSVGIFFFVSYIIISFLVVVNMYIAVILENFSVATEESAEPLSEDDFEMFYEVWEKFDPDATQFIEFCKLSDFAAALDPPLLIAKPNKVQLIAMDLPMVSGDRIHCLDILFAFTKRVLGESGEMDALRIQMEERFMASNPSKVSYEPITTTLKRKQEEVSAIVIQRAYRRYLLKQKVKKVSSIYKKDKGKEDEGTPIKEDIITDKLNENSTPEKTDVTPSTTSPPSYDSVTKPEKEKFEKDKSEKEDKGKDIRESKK

## Nc1nc(N)c(-c2cccc(Cl)c2Cl)c(CF)n1 [Citrate]
[1]
  pH of the solution: 3.99
[2]
  stability profile suggested by the tests: could provide good stability

## Nc1nc(N)c(-c2cccc(Cl)c2Cl)c(CF)n1 [Acetate]
[1]
  pH of the solution: 5.54
[1]; read-out: solubility of four salts
  solubility: < 1 mg/mL
[2]
  Hotstage/DSC results indicates (racemisation on heating): Racemisation
  temperature of racemisation indicated by hotstage/DSC: ~200 °C

## Nc1nc(N)c(-c2cccc(Cl)c2Cl)c(CF)n1 [Sulphate]
[1]
  pH of the solution: 1.92
  solubility of the equivalent base over or around 25 mg/ml: around 25 mg/ml
[2]
  stability profile suggested by the tests: could provide good stability
  Hotstage/DSC results indicates (racemisation on heating): Racemisation
  temperature of racemisation indicated by hotstage/DSC: 194 °C

## Nc1nc(N)c(-c2cccc(Cl)c2Cl)c(CF)n1 [Naphthalenedisulphonate]
[1]
  solubility of four salts: less than 1 mg/ml
[2]
  stability profile suggested by the tests: could provide good stability

## Nc1nc(N)c(-c2cccc(Cl)c2Cl)c(CF)n1 [Methanesulphonate, R(-)-2,4-diamino-5-(2,3-dichlorophenyl)-6-fluoromethyl Pyrimidine Methanesulphonate]
[1]
  pH of the solution: 3.33
  solubility of the equivalent base over or around 25 mg/ml: around 25 mg/ml
[2]
  stability profile suggested by the tests: could provide good stability
  Hotstage/DSC results indicates (racemisation on heating): Racemisation
  temperature of racemisation indicated by hotstage/DSC: 240 °C

## Nc1nc(N)c(-c2cccc(Cl)c2Cl)c(CF)n1 [(L)-Lactate]
[1]
  pH of the solution: 3.43
  solubility of four salts: less than 1 mg/ml
[2]
  Hotstage/DSC results indicates (racemisation on heating): Racemisation
  temperature of racemisation indicated by hotstage/DSC: 143 °C

## Nc1nc(N)c(-c2cccc(Cl)c2Cl)c(CF)n1 [S(+)enantiomer, S(+)-2,4-diamino-5-(2,3-dichlorophenyl)-6-fluoromethyl pyrimidine, reference compound]
[3]; p.o.
  Analgesia ED50 (95% limits): 50.1 (39.2-70.5) mg/kg
[4]
  half-life (t1/2): 3.1 h
[5]; at 10 μM
  inhibition of veratrine-evoked glutamate release: 0%
[6]; 30 mg/kg i.p. 6 times, MPTP 40 mg/kg s.c.
  % protection: 20.3%
[6]; 30 mg/kg i.p. 6 times, MPTP 40 mg/kg s.c., day 7
  Dopamine content in the striatum: 7.99 ± 1.55 μg/g wet tissue
[6]; 30 mg/kg i.p., day -1 to 7
  % mortality: 0%
[7]
  inhibition of rat liver DHFR: 33%
[8]
  IC50: 20 µM
  reduction of peak sodium current: concentration-dependent reduction of peak sodium current
[9]; rats, 0.5 hours, 30 min
  ED50 (95% limits): 17.6 (11.6-26.4) mg/kg
[9]; rats, 1 hour, 60 min
  ED50 (95% limits): 19.0 (12.7-28.5) mg/kg
[9]; rats, 2 hours, 120 min
  ED50 (95% limits): 30.7 (20.9-45.3) mg/kg
[9]; rats, 4 hours, 240 min
  ED50 (95% limits): 87.3 (47.7-168) mg/kg

## Nc1nc(N)c(-c2cccc(Cl)c2Cl)c(CF)n1 [HCl, R(-)-2,4-diamino-5-(2,3-dichlorophenyl)-6-fluoromethyl Pyrimidine Monohydrochloride]
[1]; Monohydrochloride
  pH of the solution: 3.61
[1]; solubility of the equivalent base over or around 25 mg/ml
  solubility: ~25 mg/mL
[2]; Monohydrochloride
  Hotstage/DSC results indicates (racemisation on heating): Racemisation
  temperature of racemisation indicated by hotstage/DSC: 243 °C

## Nc1nc(N)c(-c2cccc(Cl)c2Cl)c(CF)n1 [Tartrate]
[1]
  pH of the solution: 3.48
[2]
  stability profile suggested by the tests: could provide good stability

## Nc1nc(N)c(-c2cccc(Cl)c2Cl)c(CF)n1 [Toluenesulphonate]
[2]
  stability profile suggested by the tests: could provide good stability

## Nc1nc(N)c(-c2cccc(Cl)c2Cl)c(CF)n1 [Benzoate]
[1]
  pH of the solution: 4.17
  solubility of four salts: less than 1 mg/ml
[2]
  Hotstage/DSC results indicates (racemisation on heating): unstable

## Nc1nc(N)c(-c2cccc(Cl)c2Cl)c(CF)n1 [Isethionate, R(-)-2,4-diamino-5-(2,3-dichlorophenyl)-6-fluoromethyl Pyrimidine Isethionate]
[10]
  ED50: 1.5 mg/kg
[1]
  pH of the solution: 1.67
  solubility of the equivalent base over or around 25 mg/ml: around 25 mg/ml
[9]; 2 h, read-out: ED50 at 2 hrs (isethionate salt versus base), i.p., 2 hrs, calculated as the base, p<0.05
  ED50: 1.8 mg/kg

## Nc1nc(N)c(-c2cccc(Cl)c2Cl)c(CF)n1 [Phosphate]
[1]
  pH of the solution: 2.34
  solubility of the equivalent base over or around 25 mg/ml: around 25 mg/ml
[2]
  stability profile suggested by the tests: could provide good stability

## Nc1nc(N)c(-c2cccc(Cl)c2Cl)c(CF)n1 [Fumarate]
[1]
  pH of the solution: 3.04
[2]
  Hotstage/DSC results indicates (racemisation on heating): Racemisation
  temperature of racemisation indicated by hotstage/DSC: 127 °C

## Nc1nnc(-c2cccc(Cl)c2Cl)c(N)n1 [Lamotrigine, 3,5-diamino-6-(2,3-dichlorophenyl)-1,2,4-triazine, reference compound]
[3]; Rattus norvegicus, po, read-out: Analgesia ED50 (95% limits)
  ED50: 34.8 mg/kg
[11]; Vh = -60 mV
  IC50: 98 µM
[11]; Vh = -90 mV
  IC50: 413 µM
[11]; R(-)enantiomer 1-500 μM
  inhibition of Na+ currents: inhibition of Na^+ currents in a concentration-dependent and voltage-dependent manner
[10]
  ED50: 2.5 mg/kg
[5]; Rattus norvegicus
  IC50: 21 µM
[8]; Rattus norvegicus, Hippocampal neurone
  IC50: 16 µM
[8]
  reduction of peak sodium current: concentration-dependent reduction of peak sodium current
[9]; rats, 0.5 hours, read-out: ED50 (95% limits)
  ED50: 2.7 mg/kg
[9]; rats, 1 hour, read-out: ED50 (95% limits)
  ED50: 3.3 mg/kg
[9]; rats, 2 hours, read-out: ED50 (95% limits)
  ED50: 2.7 mg/kg
[9]; rats, 4 hours, read-out: ED50 (95% limits)
  ED50: 2.3 mg/kg
[9]; rats, 8 hours, read-out: ED50 (95% limits)
  ED50: 4.8 mg/kg
[9]; rats, 24 hours, read-out: ED50 (95% limits)
  ED50: 7.1 mg/kg
[12]; ip, i.p.
  ED50: 2.3 mg/kg
[12]; po, p.o.
  ED50: 3.3 mg/kg
[12]; sc, s.c.
  ED50: 1.8 mg/kg

## Nc1nc(N)c(-c2cccc(Cl)c2Cl)c(CF)n1 [Benzenesulphonate]
[1]
  pH of the solution: 2.43
[2]
  stability profile suggested by the tests: could provide good stability

## Nc1nc(N)c(-c2cccc(Cl)c2Cl)c(CF)n1 [Succinate]
[1]
  pH of the solution: 4.09
[2]
  Hotstage/DSC results indicates (racemisation on heating): Racemisation
  temperature of racemisation indicated by hotstage/DSC: 81 °C

## Nc1nc(N)c(-c2cccc(Cl)c2Cl)c(CF)n1 [Malonate]
[1]
  pH of the solution: 3.2
[2]
  stability profile suggested by the tests: could provide good stability

Reference: US6124308A, “Optically active phenyl pyrimidine derivatives as analgesic agent” (priority 1995, dated 2000)
